These compounds were tested against T1, hGPR40 (Homo sapiens, UniProt O14842) (assay: FDSS-Based Intracellular Calcium Assay). Settings: cells expressing GPR40, intracellular Ca2+ response.
T1 construct: 3x FLAG; expressed in transfected cells
Assay type: cell-based
Method: FDSS-Based Intracellular Calcium Assay
Cell lines expressing GPR40 are generated using the pDEST 3× flag gene expression system and are cultured in culture medium comprising the following components: F12 (Gibco #11765), 10% lipid deprived fetal bovine serum, 250 μg/ml zeocin and 500 μg/ml G418. To conduct the fluorescent imaging plate reader (FLIPR)-based calcium flux assay to measure intracellular Ca^2+ response, cells expressing GPR40 are plated on 384 well plates (BD Biocoat #356697) at a density of 20,000 cells/20 μL medium per well in phenol red and serum-free DMEM (Gibco #21063-029) and incubated overnight. […] Compounds are dissolved in DMSO and diluted to desired concentrations with assay buffer and added to the cells as 3x solution (20 μL per well). Run fluorescence/luminescence reader FDSS (Hamamatsu) to read intracellular Ca^2+ response.

T1 sequence (O14842 whole entry): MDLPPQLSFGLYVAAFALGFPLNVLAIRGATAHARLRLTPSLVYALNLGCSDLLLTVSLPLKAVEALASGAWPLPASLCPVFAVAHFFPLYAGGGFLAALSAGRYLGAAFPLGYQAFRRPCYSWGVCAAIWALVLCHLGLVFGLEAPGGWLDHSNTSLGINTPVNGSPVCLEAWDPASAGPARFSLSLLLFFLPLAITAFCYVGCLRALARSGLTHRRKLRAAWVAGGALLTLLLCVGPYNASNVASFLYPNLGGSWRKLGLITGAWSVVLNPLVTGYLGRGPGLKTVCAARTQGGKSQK

Row | Structure (SMILES) | EC50
1 | COc1ccc(F)c(-c2ccc(Cc3ccc(N4N=C(C(F)(F)F)CC4CC(=O)O)cc3)cc2C)c1 (single isomer, unassigned) [Example 22, Isomer 1, 2-(1-(4-((2′-fluoro-5′-methoxy-2-methylbiphenyl-4-yl)methyl)phenyl)-3-(trifluoromethyl)-4,5-dihydro-1H-pyrazol-5-yl)acetic acid] | 770 nM
2 | COc1cccc(-c2ccc(Oc3ccc(N4N=C(C(F)(F)F)CC4CC(=O)O)cc3)c(C)c2)c1 (single isomer, unassigned) [Example 9, Isomer 2, 2-(1-(4-(3′-methoxy-3-methylbiphenyl-4-yloxy)phenyl)-3-(trifluoromethyl)-4,5-dihydro-1H-pyrazol-5-yl)acetic acid] | 290 nM
3 | COc1ccc(F)c(-c2ccc(Cc3ccc(N4N=C(c5cc(C)on5)[C@@H](C)[C@@H]4CC(=O)O)cc3)c(C)c2)c1 (single isomer, unassigned) [Example 69, isomer 2] | 2560 nM
4 | COc1ccc(F)c(-c2cc(C)c(Oc3ccc(N4N=C(C(F)(F)F)CC4CC(=O)O)cc3)cc2F)c1 (racemic) [Example 12, 2-(1-(4-(2,2′-difluoro-5′-methoxy-5-methylbiphenyl-4-yloxy)phenyl)-3-(trifluoromethyl)-4,5-dihydro-1H-pyrazol-5-yl)acetic acid] | 510 nM
5 | Cc1cc(Cc2ccc(N3N=C(C(F)(F)F)CC3CC(=O)O)cc2)ccc1-c1cc(OC(F)(F)F)ccc1Cl (racemic) [Example 25, 2-(1-(4-((2′-chloro-2-methyl-5′-(trifluoromethoxy)biphenyl-4-yl)methyl)phenyl)-3-(trifluoromethyl)-4,5-dihydro-1H-pyrazol-5-yl)acetic acid] | 280 nM
6 | Cc1ccccc1Oc1ccc(N2N=C(c3nnnn3C)CC2CC(=O)O)cc1 (racemic) [Example 7, 2-(3-(1-methyl-1H-tetrazol-5-yl)-1-(4-(o-tolyloxy)phenyl)-4,5-dihydro-1H-pyrazol-5-yl)acetic acid] | 3200 nM
7 | O=C(O)CC1CC(C(F)(F)F)=NN1c1ccc(OCc2ccc(Cl)cc2Cl)cc1 (racemic) [Example 2, 2-(1-(4-(2,4-dichlorobenzyloxy)phenyl)-3-(trifluoromethyl)-4,5-dihydro-1H-pyrazol-5-yl)acetic acid] | 800 nM
8 | COc1ccc(F)c(-c2ccc(Cc3ccc(N4N=C(C(F)(F)F)CC4CC(=O)O)cc3)c(F)c2)c1 (single isomer, unassigned) [Example 19, Isomer 1, 2-(1-(4-((2′,3-difluoro-5′-methoxybiphenyl-4-yl)methyl)phenyl)-3-(trifluoromethyl)-4,5-dihydro-1H-pyrazol-5-yl)acetic acid] | 580 nM
9 | CCC1C(C(F)(F)F)=NN(c2ccc(Cc3ccc(-c4cc(OC)ccc4F)cc3C)cc2)C1CC(=O)O (single isomer, unassigned) [Example 44, Isomer 1, 2-(4-ethyl-1-(4-((2′-fluoro-5′-methoxy-3-methylbiphenyl-4-yl)methyl)phenyl)-3-(trifluoromethyl)-4,5-dihydro-1H-pyrazol-5-yl)acetic acid] | 1310 nM
10 | COc1ccc(F)c(-c2ccc(Cc3ccc(N4N=C(c5ccn(C)n5)C(C)C4CC(=O)O)cc3)c(C)c2)c1 (single isomer, unassigned) [Example 55, Isomer 1, 2-((1-(4-((2′-fluoro-5′-methoxy-3-methyl-[1,1′-biphenyl]-4-yl)methyl)phenyl)-1′,4-dimethyl-4,5-dihydro-1H,1′H-[3,3′-bipyrazol]-5-yl)acetic acid, trans-diastereomer] | 5630 nM
11 | COc1ccc(F)c(-c2ccc(Cc3ccc(N4N=C(C#N)CC4CC(=O)O)cc3)c(C)c2)c1 (single isomer, unassigned) [Example 34, Isomer 2, 2-(3-cyano-1-(4-((2′-fluoro-5′-methoxy-3-methylbiphenyl-4-yl)methyl)phenyl)-4,5-dihydro-1H-pyrazol-5-yl)acetic acid] | 560 nM
12 | Cc1ccccc1Oc1ccc(N2N=C(C(F)(F)F)CC2CC(=O)O)cc1 (single isomer, unassigned) [Example 11, Isomer 2, 2-(1-(4-(o-tolyloxy)phenyl)-3-(trifluoromethyl)-4,5-dihydro-1H-pyrazol-5-yl)acetic acid] | 1850 nM
13 | COc1ccc(F)c(-c2ccc(Cc3ccc(N4N=C(C(F)(F)F)C(CO)C4CC(=O)O)cc3)c(C)c2)c1 (single isomer, unassigned) [Example 53, Isomer 2, 2-(1-(4-((2′-fluoro-5′-methoxy-3-methyl-[1,1′-biphenyl]-4-yl)methyl)phenyl)-4-(hydroxymethyl)-3-(trifluoromethyl)-4,5-dihydro-1H-pyrazol-5-yl)acetic acid, trans-diastereomer] | 1100 nM

Stronger by EC50, values ahead:

Row | EC50 | Structure (SMILES)
14 | 190 nM | COc1cccc(-c2ccc(Oc3ccc(N4N=C(C(F)(F)F)CC4CC(=O)O)cc3)c(C)c2)c1 (single isomer, unassigned) [Example 9, Isomer 1, 2-(1-(4-(3′-methoxy-3-methylbiphenyl-4-yloxy)phenyl)-3-(trifluoromethyl)-4,5-dihydro-1H-pyrazol-5-yl)acetic acid]
15 | 170 nM | COCC1C(C(F)(F)F)=NN(c2ccc(Cc3ccc(-c4cc(OC)ccc4F)cc3C)cc2)C1CC(=O)O (single isomer, unassigned) [Example 48, Isomer 1, 2-(1-(4-((2′-fluoro-5′-methoxy-3-methylbiphenyl-4-yl)methyl)phenyl)-4-(methoxymethyl)-3-(trifluoromethyl)-4,5-dihydro-1H-pyrazol-5-yl)acetic acid]
16 | 63 nM | COc1ccc(F)c(-c2ccc(Cc3ccc(N4N=C(c5ccccn5)C(C)C4CC(=O)O)cc3)c(C)c2)c1 (single isomer, unassigned) [example 62, isomer 2, 2-(1-(4-((2′-fluoro-5′-methoxy-3-methylbiphenyl-4-yl)methyl)phenyl)-4-methyl-3-(pyridin-2-yl)-4,5-dihydro-1H-pyrazol-5-yl)acetic acid]
17 | 270 nM | COc1cc(-c2ccc(Oc3ccc(N4N=C(C(F)(F)F)CC4CC(=O)O)cc3)c(C)c2)c(F)cn1 (single isomer, unassigned) [Example 15, Isomer 1, 2-(1-(4-(4-(5-fluoro-2-methoxypyridin-4-yl)-2-methylphenoxy)phenyl)-3-(trifluoromethyl)-4,5-dihydro-1H-pyrazol-5-yl)acetic acid]
18 | 6 nM | COc1ccc(F)c(-c2ccc(Cc3ccc(N4N=C(c5ccccc5)C(C)C4CC(=O)O)cc3)c(C)c2)c1 (single isomer, unassigned) [Example 59, Isomer 2, 2-(1-(4-((2′-fluoro-5′-methoxy-3-methyl-[1,1′-biphenyl]-4-yl)methyl)phenyl)-4-methyl-3-phenyl-4,5-dihydro-1H-pyrazol-5-yl)acetic acid]
19 | 150 nM | COc1ccc(Cc2ccc(N3N=C(C#N)CC3CC(=O)O)cc2)c(C)c1 (racemic) [Example 37, 2-(3-cyano-1-(4-(4-methoxy-2-methylbenzyl)phenyl)-4,5-dihydro-1H-pyrazol-5-yl)acetic acid]
20 | 150 nM | COc1cc(-c2ccc(Cc3ccc(N4N=C(C(F)(F)F)CC4CC(=O)O)cc3)c(C)c2)c(F)cn1 (single isomer, unassigned) [Example 27, Isomer 2, 2-(1-(4-(4-(5-fluoro-2-methoxypyridin-4-yl)-2-methylbenzyl)phenyl)-3-(trifluoromethyl)-4,5-dihydro-1H-pyrazol-5-yl)acetic acid]
